# Assay results: patent US8202856B2 (Merck Serono SA, priority 2007, dated 2012)
# Counter-ions that a name gives are not always drawn.
# Target: S1P1 receptor (Homo sapiens, UniProt P21453)
# Assay: 35S-GTPγS binding, membranes from CHO cells expressing S1P1
# Assay type: biochemical
# Settings: CHO cell membranes expressing S1P1
# Experimental: Receptor binding assay: Membranes were prepared from CHO cells expressing S1P1 or S1P3 for use in ligand and 35S-GTPTS binding studies. Cells were suspended in 50 mM TRIS, pH 7.4, 2 mM EDTA, 250 mM Sucrose (buffer A) and 1× Complete protease inhibitor cocktail (Roche), and disrupted at 4° C. by nitrogen decompression using a cell disruption bomb (Parr Instrument). Following centrifugation at 1000 RPM for 10 min at 4° C., the supernatant was suspended in buffer A and centrifuged again at 19000 RPM for 60 min at 4° C. The pellet was then suspended in 10 mM HEPES, pH 7.4, 1 mM EDTA, 250 mM Sucrose (Buffer B), and 1× Complete EDTA-free protease inhibitor cocktail and homogenized using a potter. Membranes were flash frozen in liquid nitrogen and stored at −80° C. [33P]sphingosine 1-phosphate (3000 Ci/mmol; American Radiolabeled Chemicals, Inc.) was added to test compounds in DMSO. Membranes and WGA SPA beads (GE Healthcare) were added to give a final volume of 100 μl in 96-well plates with assay concentrations of […] [33P]sphingosine 1-phosphate (respectively for S1P1 or S1P3), 50 mM HEPES, pH 7.5, 5 mM MgCl2, 100 mM NaCl, 0.4% fatty acid-free BSA, 1-5 μg/well of proteins and 100 μg/well of WGA SPA beads. Binding was performed for 60 min at room temperature on a shaker and bound radioactivity was measured on a PerkinElmer 1450 MicroBeta counter. Specific binding was calculated by subtracting remaining radioactivity in the presence of 1000-fold excess of unlabeled S1P. Binding data were analyzed using the GraphPad Prism program.
# Measurements of ^35S-GTPγS Binding: Membranes (1 to 10 μg protein) prepared as described above, were incubated in 96-well Scintiplates (PerkinElmer) with test compounds diluted in DMSO, in 180 μl of 20 mM HEPES, pH 7.4, 10 mM MgCl2, 2 μg/well Saponin, 0.2% fatty acid free BSA (Assay buffer), 140 mM NaCl and 1.7 μM GDP. The assay was initiated with the addition of 20 μl of 1.5 nM [35S]-GTPγS (1100 Ci/mmol; GE Healthcare) in assay buffer. After 60 min incubation at 30° C. on a shaker, plates were centrifuged for 10 min at 2000 RPM. Supernatant was discarded and membrane bound radioactivity was measured on a PerkinElmer 1450 MicroBeta counter. Triplicate samples were averaged and expressed as response relative to S1P activation in absence of compound (n=2).
# Sequence of S1P1 receptor (P21453 whole entry): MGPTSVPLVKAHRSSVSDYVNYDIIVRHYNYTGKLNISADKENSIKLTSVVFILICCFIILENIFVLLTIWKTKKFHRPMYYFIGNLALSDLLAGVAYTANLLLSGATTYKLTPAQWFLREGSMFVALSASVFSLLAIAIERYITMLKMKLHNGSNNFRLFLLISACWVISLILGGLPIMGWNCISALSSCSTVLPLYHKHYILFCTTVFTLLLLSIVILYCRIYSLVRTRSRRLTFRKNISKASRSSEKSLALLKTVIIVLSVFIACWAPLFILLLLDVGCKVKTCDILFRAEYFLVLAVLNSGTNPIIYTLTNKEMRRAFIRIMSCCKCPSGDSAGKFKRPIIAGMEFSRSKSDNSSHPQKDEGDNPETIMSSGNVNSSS
row,Compound,EC50 [nM]
1,"OCCNCc1ccc(-c2noc(-c3nnn(-c4ccccc4F)c3-c3ccncc3)n2)cc1 [Example 136, 2-[(4-{5-[1-(2-fluorophenyl)-5-pyridin-4-yl-1H-1,2,3-triazol-4-yl]-1,2,4-oxadiazol-3-yl}benzyl)amino]ethanol]",31
2,"Fc1ccccc1-n1nnc(-c2nc(-c3ccc(CN4CCOCC4)cc3)no2)c1-c1ccncc1 [Example 98, 4-(4-{5-[1-(2-fluorophenyl)-5-pyridin-4-yl-1H-1,2,3-triazol-4-yl]-1,2,4-oxadiazol-3-yl}benzyl)morpholine]",439
3,"Fc1ccccc1-n1nnc(-c2nc(-c3ccc(CNC4CC4)cc3)no2)c1-c1ccncc1 [Example 164, N-(4-{5-[1-2-fluorophenyl)-5-pyridin-4-yl-1H-1,2,3-triazol-4-yl]-1,2,4-oxadiazol-3-yl}benzyl)cyclopropanamine formate]",27
4,"OCc1ccc(-c2noc(-c3nnn(-c4ccccc4F)c3-c3ccncc3)n2)cc1 [Example 108, (4-{5-[1-(2-fluorophenyl)-5-pyridin-4-yl-1H-1,2,3-triazol-4-yl]-1,2,4-oxadiazol-3-yl}phenyl)methanol]",21
5,"Fc1ccccc1-n1nnc(-c2nc(-c3cccc(C(F)(F)F)c3)no2)c1-c1ccncc1 [Example 103, 4-(1-(2-fluorophenyl)-4-{3-[3-(trifluoromethyl)phenyl]-1,2,4-oxadiazol-5-yl}-1H-1,2,3-triazol-5-yl)pyridine]",17
6,"Fc1ccccc1-n1nnc(-c2nc(-c3ccc(C(F)(F)F)cc3)no2)c1-c1ccncc1 [Example 109, 4-(1-(2-fluorophenyl)-4-{3-[4-(trifluoromethyl)phenyl]-1,2,4-oxadiazol-5-yl}-1H-1,2,3-triazol-5-yl)pyridine]",402
7,"COc1cccc(-c2noc(-c3nnn(-c4ccccc4F)c3-c3ccccn3)n2)c1 [Example 70, 2-{1-(2-fluorophenyl)-4-[3-(3-methoxyphenyl)-1,2,4-oxadiazol-5-yl]-1H-1,2,3-triazol-5-yl}pyridine]",284
8,"Fc1ccccc1-n1nnc(-c2nc(-c3ccc4[nH]ccc4c3)no2)c1-c1ccncc1 [Example 43, 5-{5-[1-(2-fluorophenyl)-5-pyridin-4-yl-1H-1,2,3-triazol-4-yl]-1,2,4-oxadiazol-3-yl}-1H-indole]",19
9,"OC1CCN(Cc2ccc(-c3noc(-c4nnn(-c5ccccc5F)c4-c4ccncc4)n3)cc2)CC1 [Example 141, 1-(4-{5-[1-(2-fluorophenyl)-5-pyridin-4-yl-1H-1,2,3-triazol-4-yl]-1,2,4-oxadiazol-3-yl}benzyl)piperidin-4-ol]",74
10,"OC1CN(Cc2ccc(-c3noc(-c4nnn(-c5ccccc5F)c4-c4ccncc4)n3)cc2)C1 [Example 135, 1-(4-{5-[1-(2-fluorophenyl)-5-pyridin-4-yl-1H-1,2,3-triazol-4-yl]-1,2,4-oxadiazol-3-yl}benzyl)azetidin-3-ol]",18
11,"Fc1ccccc1-n1nnc(-c2nc(-c3c(F)cccc3F)no2)c1-c1ccncc1 [Example 99, 4-[4-[3-(2,6-difluorophenyl)-1,2,4-oxadiazol-5-yl]-1-(2-fluorophenyl)-1H-1,2,3-triazol-5-yl]pyridine]",106
12,"COCc1c(-c2nc(-c3ccc(N)nc3)no2)nnn1-c1ccccc1F [Example 123, 5-{5-[1-(2-fluorophenyl)-5-(methoxymethyl)-1H-1,2,3-triazol-4-yl]-1,2,4-oxadiazol-3-yl}pyridin-2-amine]",475
13,"O=C(O)[C@H]1CCC[C@H]1NCc1ccc(-c2noc(-c3nnn(-c4ccccc4F)c3-c3ccncc3)n2)cc1 [Example 177, (1S,2R)-2-[(4-{5-[1-(2-fluorophenyl)-5-pyridin-4-yl-1H-1,2,3-triazol-4-yl]-1,2,4-oxadiazol-3-yl}benzyl)amino]cyclopentanecarboxylic acid]",742
14,"CC(C)NCc1ccc(-c2noc(-c3nnn(-c4ccccc4F)c3-c3ccncc3)n2)cc1 [Example 165, N-(4-{5-[1-(2-fluorophenyl)-5-pyridin-4-yl-1H-1,2,3-triazol-4-yl]-1,2,4-oxadiazol-3-yl}benzyl)propan-2-amine]",17
15,"COCc1c(-c2nc(-c3cccc4[nH]ccc34)no2)nnn1-c1ccccc1F [Example 90, 4-{5-[1-(2-fluorophenyl)-5-(methoxymethyl)-1H-1,2,3-triazol-4-yl]-1,2,4-oxadiazol-3-yl}-1H-indole]",204
16,"Fc1ccccc1-n1nnc(-c2nc(-c3ccncc3)no2)c1-c1ccccn1 [Example 66, 2-[1-(2-fluorophenyl)-4-(3-pyridin-4-yl-1,2,4-oxadiazol-5-yl)-1H-1,2,3-triazol-5-yl]pyridine]",26
17,"CC(=O)NC1CCN(Cc2ccc(-c3noc(-c4nnn(-c5ccccc5F)c4-c4ccncc4)n3)cc2)CC1 [Example 137, N-[1-(4-{5-[1-(2-fluorophenyl)-5-pyridin-4-yl-1H-1,2,3-triazol-4-yl]-1,2,4-oxadiazol-3-yl}benzyl)piperidin-4-yl]acetamide]",223
18,"Fc1ccccc1-n1nnc(-c2nc(-c3ccc(C4OCCO4)cc3)no2)c1-c1ccncc1 [Example 110, 4-[4-{3-[4-(1,3-dioxolan-2-yl)phenyl]-1,2,4-oxadiazol-5-yl}-1-(2-fluorophenyl)-1H-1,2,3-triazol-5-yl]pyridine]",136
19,"NCc1cccc(-c2noc(-c3nnn(-c4ccccc4F)c3-c3ccncc3)n2)c1 [Example 125, 1-(3-{5-[1-(2-fluorophenyl)-5-pyridin-4-yl-1H-1,2,3-triazol-4-yl]-1,2,4-oxadiazol-3-yl}phenyl)methanamine hydrochloride]",230
20,"COCc1c(-c2nc(-c3ccc(CN)cc3)no2)nnn1-c1ccccc1F [Example 81, 1-(4-{5-[1-(2-fluorophenyl)-5-(methoxymethyl)-1H-1,2,3-triazol-4-yl]-1,2,4-oxadiazol-3-yl}phenyl)methanamine]",236
21,"Fc1ccccc1-n1nnc(-c2nc(-c3ccoc3)no2)c1-c1ccncc1 [Example 88, 4-{1-(2-fluorophenyl)-4-[3-(3-furyl)-1,2,4-oxadiazol-5-yl]-1H-1,2,3-triazol-5-yl}pyridine]",945
22,"COCc1c(-c2nc(-c3ccccc3OC)no2)nnn1-c1ccccc1F [Example 50, 5-[1-(2-fluorophenyl)-5-(methoxymethyl)-1H-1,2,3-triazol-4-yl]-3-(2-methoxyphenyl)-1,2,4-oxadiazole]",443
23,"O=C(O)[C@H]1CC[C@H](NCc2ccc(-c3noc(-c4nnn(-c5ccccc5F)c4-c4ccncc4)n3)cc2)CC1 [Example 168, (trans)-4-(4-(5-(1-(2-fluorophenyl)-5-(pyridin-4-yl)-1H-1,2,3-triazol-4-yl)-1,2,4-oxadiazol-3-yl)benzylamino)cyclohexanecarboxylic acid]",16
24,"Nc1c(Cl)cc(-c2noc(-c3nnn(-c4ccccc4F)c3-c3ccncc3)n2)cc1Cl [Example 117, 2,6-dichloro-4-{5-[1-(2-fluorophenyl)-5-pyridin-4-yl-1H-1,2,3-triazol-4-yl]-1,2,4-oxadiazol-3-yl}aniline]",9
25,"Fc1ccccc1-n1nnc(-c2nc(-c3cccnc3)no2)c1Cc1ccccc1 [Example 75, 3-{5-[5-benzyl-1-(2-fluorophenyl)-1H-1,2,3-triazol-4-yl]-1,2,4-oxadiazol-3-yl}pyridine]",665
26,"Fc1ccccc1-n1nnc(-c2nc(-c3ccc(Cn4ccnc4)cc3)no2)c1-c1ccncc1 [Example 170, 4-(1-(2-fluorophenyl)-4-{3-[4-(1H-imidazol-1-ylmethyl)phenyl]-1,2,4-oxadiazol-5-yl}-1H-1,2,3-triazol-5-yl)pyridine]",4
27,"COc1ccccc1-c1noc(-c2nnn(-c3ccccc3F)c2-c2ccccn2)n1 [Example 67, 2-{1-(2-fluorophenyl)-4-[3-(2-methoxyphenyl)-1,2,4-oxadiazol-5-yl]-1H-1,2,3-triazol-5-yl}pyridine]",873
28,"NC(=O)C1CCN(Cc2ccc(-c3noc(-c4nnn(-c5ccccc5F)c4-c4ccncc4)n3)cc2)CC1 [Example 115, 11-(4-{5-[1-(2-fluorophenyl)-5-pyridin-4-yl-1H-1,2,3-triazol-4-yl]-1,2,4-oxadiazol-3-yl}benzyl)piperidine-4-carboxamide]",246
29,"Nc1ccc(-c2noc(-c3nnn(-c4ccccc4F)c3-c3ccncc3)n2)cn1 [Example 118, 5-{5-[1-(2-fluorophenyl)-5-pyridin-4-yl-1H-1,2,3-triazol-4-yl]-1,2,4-oxadiazol-3-yl}pyridin-2-amine]",131
